Source: patent US4402944A, “Polysulfonate Sennoside A & B compounds and method of use” (American Cyanamid Company, priority 1982, dated 1983)
Structures can show the parent of a compound that is named as a salt.

Columns and labels:
[1] = system: activated human C1; experiment: Test Code 026 (C1 inhibitor); type: biochemical; conditions: serial two fold dilution assay; higher well number indicates higher activity; protection of human C2 from C1 and C4
Method: (§1) An active inhibitor protects C2 from C1 and C4; (ii) Test Code 035 (C3-C9 inhibitor)-This test determines the ability of the late components of human complement (C3-C9) to lyse EAC 142 in the presence of appropriate dilutions of the test compound. An active inhibitor protects EAC 142 from lysis by human C3-C9; and (iii) Cap 50 Test-Here, appropriate amounts of the test compound are added to a pool of guinea pig serum in vitro, after which the undiluted serum capillary tube assay of U.S. Pat. No. 3,876,376 is run. The concentration of compound inhibiting 50% is reported.

[2] = system: late components of human complement (C3-C9); experiment: Test Code 035 (C3-C9 inhibitor); type: biochemical; conditions: serial two fold dilution assay; higher well number indicates higher activity; protection of EAC 142 from lysis
Method: as §1

Compound: O=C(O)c1cc(OS(=O)(=O)O)c2c(c1)[C@H]([C@H]1c3cccc(O[C@@H]4O[C@H](COS(=O)(=O)O)[C@@H](OS(=O)(=O)O)[C@H](OS(=O)(=O)O)[C@H]4OS(=O)(=O)O)c3C(=O)c3c(OS(=O)(=O)O)cc(C(=O)O)cc31)c1cccc(O[C@@H]3O[C@H](COS(=O)(=O)O)[C@@H](OS(=O)(=O)O)[C@H](OS(=O)(=O)O)[C@H]3OS(=O)(=O)O)c1C2=O (relative stereo) [(R*,S*)-5,5'-Bis-(β-D-glucopyranosyloxy)-9,9',10,10'-tetrahydro-4,4'-dihydroxy-10,10'-dioxo-[9,9'-bianthracene]-2,2'-dicarboxylic acid, decakis (H-sulfate), decasodium salt]
- 026 (C1 inhibitor), activity in wells [1]: 7 wells
- 035 (C3-C9 inhibitor), activity in wells [2]: 1 wells

Compound: O=C(O)c1cc(OS(=O)(=O)O)c2c(c1)C(C1c3cccc(OC4OC(COS(=O)(=O)O)C(OS(=O)(=O)O)C(OS(=O)(=O)O)C4OS(=O)(=O)O)c3C(=O)c3c(OS(=O)(=O)O)cc(C(=O)O)cc31)c1cccc(OC3OC(COS(=O)(=O)O)C(OS(=O)(=O)O)C(OS(=O)(=O)O)C3OS(=O)(=O)O)c1C2=O [(R*,R*)-5,5'-Bis-(β-D-glucopyranosyloxy)-9,9',10,10'-tetrahydro-4,4'-dihydroxy-10,10'-dioxo-[9,9'-bianthracene]-2,2'-dicarboxylic acid, decakis (H-sulfate), decasodium salt]
- 026 (C1 inhibitor), activity in wells [1]: 8 wells
- 035 (C3-C9 inhibitor), activity in wells [2]: 2 wells
